# Measured values as given in patent US7153869B2, “Substituted amino acids as erythropoietin mimetics” (priority 1998, dated 2006).
# Where two headings read alike, the source gives them in different places.
# Biological target: T1, EBP-Ig (N-terminal 225 amino acids of the human EPO receptor joined to an Ig heavy chain) (Homo sapiens, UniProt P19235)
# T1 construct: Ig heavy chain (fusion partner); made in house; host or cells: NSO cells (secreted into conditioned media)
# T1 sequence (P19235 25-250 limits assumed): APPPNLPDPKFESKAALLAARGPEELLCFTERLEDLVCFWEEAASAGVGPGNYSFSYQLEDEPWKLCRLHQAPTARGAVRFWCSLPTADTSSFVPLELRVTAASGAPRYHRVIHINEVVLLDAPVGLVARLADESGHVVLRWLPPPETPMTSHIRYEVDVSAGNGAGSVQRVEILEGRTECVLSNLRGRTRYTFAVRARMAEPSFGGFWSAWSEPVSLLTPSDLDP
# Assay: Inhibition of [125I]EPO binding to immobilized EBP-Ig (EPO binding protein-Ig), scintillation Flash plate competition assay
# Details: for % inh @ 50 μM (Inhibition of EPO binding to EBP-Ig): 50 μM test compound, average % inhibition; for % inh @ 50 μM (Inhibition of EPO binding to EBP-Ig) / IC30 μM (Inhibition of EPO binding to EBP-Ig) / IC50: 0.5 nM [125I]EPO; for IC30 μM (Inhibition of EPO binding to EBP-Ig): 0–500 μM test compound; for IC50: read-out: IC50, μM (Inhibition of EPO binding to EBP-Ig), concentration reducing corrected total binding to 50%
# [1] = read-out: % inh @ 50 μM (Inhibition of EPO binding to EBP-Ig)
compound,measurement,setting,value
Cc1ccc(Oc2cccc(/C=C/C(=O)N(Cc3cccc(Oc4ccccc4)c3)C(CCCCN)C(=O)O)c2)cc1 (stereo not drawn) [compound 287],EPO/EBP-Ig % inh @ 50 μM,"50 μM compound, Table 15",36%
same,% inh @ 50 μM (Inhibition of EPO binding to EBP-Ig),,36%
CC(C)(C)c1ccc(Oc2cccc(/C=C/C(=O)N(Cc3cccc(Oc4ccccc4)c3)C(CCCCN)C(=O)O)c2)cc1 (stereo not drawn) [compound 288],EPO/EBP-Ig % inh @ 50 μM,"50 μM compound, Table 15",27%
NCCCCC(C(=O)O)N(Cc1cccc(Oc2ccccc2)c1)C(=O)/C=C/c1ccc(Oc2ccccc2)cc1 (stereo not drawn) [compound 289],EPO/EBP-Ig % inh @ 50 μM,"50 μM compound, Table 15",20%
COC(=O)[C@H](COC(C)(C)C)N(C/C=C/c1ccc(-c2ccccc2)cc1)C/C=C/c1ccc(-c2ccccc2)cc1 [compound 291],EPO/EBP-Ig % inh @ 50 μM,"50 μM compound, Table 16A",17%
COC(=O)[C@H](COC(C)(C)C)N(C/C=C/c1cccc(Oc2cccc(C(F)(F)F)c2)c1)C/C=C/c1cccc(Oc2cccc(C(F)(F)F)c2)c1 [compound 292],EPO/EBP-Ig % inh @ 50 μM,"50 μM compound, Table 16A",11%
COC(=O)[C@H](COC(C)(C)C)N(C/C=C/c1cccc(Oc2ccc(Cl)c(Cl)c2)c1)C/C=C/c1cccc(Oc2ccc(Cl)c(Cl)c2)c1 [compound 293],EPO/EBP-Ig % inh @ 50 μM,"50 μM compound, Table 16A",14%
COC(=O)[C@H](COC(C)(C)C)N(C/C=C/c1cccc(Oc2ccc(C(C)(C)C)cc2)c1)C/C=C/c1cccc(Oc2ccc(C(C)(C)C)cc2)c1 [compound 294],EPO/EBP-Ig % inh @ 50 μM,"50 μM compound, Table 16A",9%
CC(=O)O.COC(=O)[C@H](CO)N(C/C=C/c1ccc(-c2ccccc2)cc1)C/C=C/c1ccc(-c2ccccc2)cc1 [compound 295],EPO/EBP-Ig % inh @ 50 μM,"50 μM compound, Table 16A",10%
CC(=O)O.COC(=O)[C@H](CO)N(C/C=C/c1cccc(Oc2ccc(Cl)c(Cl)c2)c1)C/C=C/c1cccc(Oc2ccc(Cl)c(Cl)c2)c1 [compound 296],EPO/EBP-Ig % inh @ 50 μM,"50 μM compound, Table 16A",0%
CC(=O)O.COC(=O)[C@H](CO)N(C/C=C/c1cccc(Oc2cccc(C(F)(F)F)c2)c1)C/C=C/c1cccc(Oc2cccc(C(F)(F)F)c2)c1 [compound 297],EPO/EBP-Ig % inh @ 50 μM,"50 μM compound, Table 16A",0%
CC(=O)O.COC(=O)[C@H](CO)N(C/C=C/c1cccc(Oc2ccc(C(C)(C)C)cc2)c1)C/C=C/c1cccc(Oc2ccc(C(C)(C)C)cc2)c1 [compound 298],EPO/EBP-Ig % inh @ 50 μM,"50 μM compound, Table 16A",1%
CC(C)(C)OC[C@@H](C(=O)O)N(C/C=C/c1ccc(-c2ccccc2)cc1)C/C=C/c1ccc(-c2ccccc2)cc1 [compound 301],EPO/EBP-Ig % inh @ 50 μM,"50 μM compound, Table 16A",25%
CC(C)(C)OC[C@@H](C(=O)O)N(C/C=C/c1cccc(Oc2ccc(Cl)c(Cl)c2)c1)C/C=C/c1cccc(Oc2ccc(Cl)c(Cl)c2)c1 [compound 302],EPO/EBP-Ig % inh @ 50 μM,"50 μM compound, Table 16A",30%
CC(C)(C)OC[C@@H](C(=O)O)N(C/C=C/c1cccc(Oc2cccc(C(F)(F)F)c2)c1)C/C=C/c1cccc(Oc2cccc(C(F)(F)F)c2)c1 [compound 303],EPO/EBP-Ig % inh @ 50 μM,"50 μM compound, Table 16A",21%
CC(C)(C)OC[C@@H](C(=O)O)N(C/C=C/c1cccc(Oc2ccc(C(C)(C)C)cc2)c1)C/C=C/c1cccc(Oc2ccc(C(C)(C)C)cc2)c1 [compound 304],EPO/EBP-Ig % inh @ 50 μM,"50 μM compound, Table 16A",19%
O=C(O)C(CO)N(CC=Cc1ccc(-c2ccccc2)cc1)CC=Cc1ccc(-c2ccccc2)cc1 (stereo not drawn) [compound 305],IC30 μM (Inhibition of EPO binding to EBP-Ig),,35 µM
same,inhibition at 50 µM,[1],48%
same,inhibition at 50 µM,"read-out: EPO/EBP-Ig % inh @ 50 μM, 50 μM compound, Table 16A",48%
same,IC50,,225 µM
COC(=O)[C@H](COC(C)(C)C)N(C/C=C/c1ccccc1)C/C=C/c1ccccc1 [compound 306],EPO/EBP-Ig % inh @ 50 μM,"50 μM compound, Table 16A",21%
O=C(O)C(F)(F)F.O=C(O)[C@H](CO)N(C/C=C/c1cccc(Oc2ccc(Cl)c(Cl)c2)c1)C/C=C/c1cccc(Oc2ccc(Cl)c(Cl)c2)c1 [compound 307],EPO/EBP-Ig % inh @ 50 μM,"50 μM compound, Table 16A",25%
O=C(O)C(F)(F)F.O=C(O)[C@H](CO)N(C/C=C/c1cccc(Oc2cccc(C(F)(F)F)c2)c1)C/C=C/c1cccc(Oc2cccc(C(F)(F)F)c2)c1 [compound 308],EPO/EBP-Ig % inh @ 50 μM,"50 μM compound, Table 16A",25%
CC(C)(C)c1ccc(Oc2cccc(/C=C/CN(C/C=C/c3cccc(Oc4ccc(C(C)(C)C)cc4)c3)[C@@H](CO)C(=O)O)c2)cc1.O=C(O)C(F)(F)F [compound 309],EPO/EBP-Ig % inh @ 50 μM,"50 μM compound, Table 16A",13%
CC(=O)O.COC(=O)[C@H](CO)N(C/C=C/c1ccccc1)C/C=C/c1ccccc1 [compound 310],EPO/EBP-Ig % inh @ 50 μM,"50 μM compound, Table 16A",34%
CC(C)(C)OC(=O)CN(C/C=C/c1cccc(Oc2ccccc2)c1)C/C=C/c1cccc(Oc2ccccc2)c1 [compound 311],EPO/EBP-Ig % inh @ 50 μM,"50 μM compound, Table 17A",5.3%
O=C(O)CN(C/C=C/c1cccc(Oc2ccccc2)c1)C/C=C/c1cccc(Oc2ccccc2)c1 [compound 312],IC30 μM (Inhibition of EPO binding to EBP-Ig),,10 µM
same,inhibition at 50 µM,[1],45%
same,inhibition at 50 µM,"read-out: EPO/EBP-Ig % inh @ 50 μM, 50 μM compound, Table 17A",45%
same,IC50,,85 µM
O=C(NCCCC[C@H](NC/C=C/c1ccc(C(F)(F)F)cc1)C(=O)O)OCc1ccccc1Cl.O=C(O)C(F)(F)F [compound 313],EPO/EBP-Ig % inh @ 50 μM,"50 μM compound, Table 18A",28%
COC(=O)[C@H](CCCCN)NC/C=C/c1ccc(C(=O)O)cc1 [compound 314],EPO/EBP-Ig % inh @ 50 μM,"50 μM compound, Table 18A",12%
COC(=O)[C@H](CCCCNC(=O)OC(C)(C)C)NC/C=C/c1cccc(Oc2ccccc2)c1 [compound 316],EPO/EBP-Ig % inh @ 50 μM,"50 μM compound, Table 18A",20%
COC(=O)[C@H](CCCCNC(=O)OC(C)(C)C)NC/C=C/c1cccc(Oc2ccc(C(C)(C)C)cc2)c1 [compound 317],EPO/EBP-Ig % inh @ 50 μM,"50 μM compound, Table 18A",13%
COC(=O)[C@H](CCCCNC(=O)OCc1ccccc1)NC/C=C/c1ccccc1 [compound 318],EPO/EBP-Ig % inh @ 50 μM,"50 μM compound, Table 18A",14%
COC(=O)[C@H](CCCCNC(=O)OCc1ccccc1)NC/C=C/c1ccc(OC)cc1 [compound 320],EPO/EBP-Ig % inh @ 50 μM,"50 μM compound, Table 18A",17%
CC(=O)O.COC(=O)c1cccc(C=CCNC(CCCCNC(=O)OCc2ccccc2)C(=O)OC)c1 (stereo not drawn) [compound 321],IC30 μM (Inhibition of EPO binding to EBP-Ig),,45 µM
same,EPO/EBP-Ig % inh @ 50 μM,"50 μM compound, Table 18A",42%
same,% inh @ 50 μM (Inhibition of EPO binding to EBP-Ig),,42%
COC(=O)[C@H](CCCCNC(=O)OCc1ccccc1)NC/C=C/c1ccc(C(=O)O)cc1 [compound 323],EPO/EBP-Ig % inh @ 50 μM,"50 μM compound, Table 18A",6%
COC(=O)[C@H](CCC(=O)O)NC/C=C/c1ccc(-c2ccccc2)cc1.O=C(O)C(F)(F)F [compound 327],EPO/EBP-Ig % inh @ 50 μM,"50 μM compound, Table 19A",11%
COC(=O)[C@H](CCC(=O)O)NC/C=C/c1cccc(Oc2ccc(Cl)c(Cl)c2)c1.O=C(O)C(F)(F)F [compound 328],EPO/EBP-Ig % inh @ 50 μM,"50 μM compound, Table 19A",33%
O=C(O)C(F)(F)F.O=C(O)CC[C@H](NC/C=C/c1ccc(-c2ccccc2)cc1)C(=O)O [compound 329],EPO/EBP-Ig % inh @ 50 μM,"50 μM compound, Table 19A",13%
O=C(O)C(F)(F)F.O=C(O)CC[C@H](NC/C=C/c1cccc(Oc2cccc(C(F)(F)F)c2)c1)C(=O)O [compound 330],EPO/EBP-Ig % inh @ 50 μM,"50 μM compound, Table 19A",12%
CC(C)(C)c1ccc(Oc2cccc(/C=C/CN[C@@H](CCC(=O)O)C(=O)O)c2)cc1.O=C(O)C(F)(F)F [compound 331],EPO/EBP-Ig % inh @ 50 μM,"50 μM compound, Table 19A",18%
O=C(O)C(F)(F)F.O=C(O)CC[C@H](NC/C=C/c1cccc(Oc2ccc(Cl)c(Cl)c2)c1)C(=O)O [compound 332],EPO/EBP-Ig % inh @ 50 μM,"50 μM compound, Table 19A",17%
COC(=O)[C@H](CCC(=O)OC(C)(C)C)NC/C=C/c1ccc2ccccc2c1 [compound 333],EPO/EBP-Ig % inh @ 50 μM,"50 μM compound, Table 19A",16%
COC(=O)[C@H](CCC(=O)OC(C)(C)C)NC/C=C/c1ccc(-c2ccccc2)cc1 [compound 335],EPO/EBP-Ig % inh @ 50 μM,"50 μM compound, Table 19A",25%
COC(=O)[C@H](CCC(=O)OC(C)(C)C)NC/C=C/c1cccc(Oc2ccc(Cl)c(Cl)c2)c1 [compound 336],EPO/EBP-Ig % inh @ 50 μM,"50 μM compound, Table 19A",32%
CC(C)(C)OC(=O)CC[C@H](NC/C=C/c1cccc(Oc2cccc(C(F)(F)F)c2)c1)C(=O)OC(C)(C)C [compound 338],EPO/EBP-Ig % inh @ 50 μM,"50 μM compound, Table 19A",23%
CC(C)(C)OC(=O)CC[C@H](NC/C=C/c1cccc(Oc2ccc(C(C)(C)C)cc2)c1)C(=O)OC(C)(C)C [compound 339],EPO/EBP-Ig % inh @ 50 μM,"50 μM compound, Table 19A",10%
CC(C)(C)OC(=O)CC[C@H](NC/C=C/c1ccc(-c2ccccc2)cc1)C(=O)O [compound 340],EPO/EBP-Ig % inh @ 50 μM,"50 μM compound, Table 19A",14%
CC(C)(C)OC(=O)CC[C@H](NC/C=C/c1cccc(Oc2ccc(Cl)c(Cl)c2)c1)C(=O)O [compound 341],EPO/EBP-Ig % inh @ 50 μM,"50 μM compound, Table 19A",19%
COC(=O)[C@H](CO)NC/C=C/c1ccc(-c2ccccc2)cc1.O=C(O)C(F)(F)F [compound 342],EPO/EBP-Ig % inh @ 50 μM,"50 μM compound, Table 20A",0%
COC(=O)[C@H](CO)NC/C=C/c1cccc(Oc2ccc(C(C)(C)C)cc2)c1.O=C(O)C(F)(F)F [compound 343],EPO/EBP-Ig % inh @ 50 μM,"50 μM compound, Table 20A",37%
COC(=O)[C@H](CO)NC/C=C/c1cccc(Oc2cccc(C(F)(F)F)c2)c1.O=C(O)C(F)(F)F [compound 344],EPO/EBP-Ig % inh @ 50 μM,"50 μM compound, Table 20A",4%
COC(=O)[C@H](CO)NC/C=C/c1cccc(Oc2ccc(Cl)c(Cl)c2)c1.O=C(O)C(F)(F)F [compound 345],EPO/EBP-Ig % inh @ 50 μM,"50 μM compound, Table 20A",40%
O=C(O)C(F)(F)F.O=C(O)[C@H](CO)NC/C=C/c1ccc(-c2ccccc2)cc1 [compound 348],EPO/EBP-Ig % inh @ 50 μM,"50 μM compound, Table 20A",21%
O=C(O)C(F)(F)F.O=C(O)[C@H](CO)NC/C=C/c1cccc(Oc2ccc(Cl)c(Cl)c2)c1 [compound 349],EPO/EBP-Ig % inh @ 50 μM,"50 μM compound, Table 20A",23%
O=C(O)C(F)(F)F.O=C(O)[C@H](CO)NC/C=C/c1cccc(Oc2cccc(C(F)(F)F)c2)c1 [compound 350],EPO/EBP-Ig % inh @ 50 μM,"50 μM compound, Table 20A",23%
CC(C)(C)c1ccc(Oc2cccc(/C=C/CN[C@@H](CO)C(=O)O)c2)cc1.O=C(O)C(F)(F)F [compound 351],EPO/EBP-Ig % inh @ 50 μM,"50 μM compound, Table 20A",29%
COC(=O)[C@H](COC(C)(C)C)NC/C=C/c1ccc(-c2ccccc2)cc1 [compound 353],EPO/EBP-Ig % inh @ 50 μM,"50 μM compound, Table 20A",24%
COC(=O)[C@H](COC(C)(C)C)NC/C=C/c1cccc(Oc2ccc(Cl)c(Cl)c2)c1 [compound 354],EPO/EBP-Ig % inh @ 50 μM,"50 μM compound, Table 20A",31%
